{"source": "paper PMC7206119", "about": "“RIP1 inhibition blocks inflammatory diseases but not tumor growth or metastases” (Cell Death and Differentiation, 2019)", "test_in_all_cases": "biochemical", "design_in_all_cases": "DiscoverX kinase panel, active-site competition binding (KINOMEscan type), percent of control at one concentration", "conditions_in_all_cases": "competition binding, percent of control", "key": {"[1]": {"target": "VRK2 (Homo sapiens, UniProt Q86Y07)"}, "[2]": {"target": "HIPK3 (Homo sapiens, UniProt Q9H422)", "sequence (Q9H422 whole entry)": "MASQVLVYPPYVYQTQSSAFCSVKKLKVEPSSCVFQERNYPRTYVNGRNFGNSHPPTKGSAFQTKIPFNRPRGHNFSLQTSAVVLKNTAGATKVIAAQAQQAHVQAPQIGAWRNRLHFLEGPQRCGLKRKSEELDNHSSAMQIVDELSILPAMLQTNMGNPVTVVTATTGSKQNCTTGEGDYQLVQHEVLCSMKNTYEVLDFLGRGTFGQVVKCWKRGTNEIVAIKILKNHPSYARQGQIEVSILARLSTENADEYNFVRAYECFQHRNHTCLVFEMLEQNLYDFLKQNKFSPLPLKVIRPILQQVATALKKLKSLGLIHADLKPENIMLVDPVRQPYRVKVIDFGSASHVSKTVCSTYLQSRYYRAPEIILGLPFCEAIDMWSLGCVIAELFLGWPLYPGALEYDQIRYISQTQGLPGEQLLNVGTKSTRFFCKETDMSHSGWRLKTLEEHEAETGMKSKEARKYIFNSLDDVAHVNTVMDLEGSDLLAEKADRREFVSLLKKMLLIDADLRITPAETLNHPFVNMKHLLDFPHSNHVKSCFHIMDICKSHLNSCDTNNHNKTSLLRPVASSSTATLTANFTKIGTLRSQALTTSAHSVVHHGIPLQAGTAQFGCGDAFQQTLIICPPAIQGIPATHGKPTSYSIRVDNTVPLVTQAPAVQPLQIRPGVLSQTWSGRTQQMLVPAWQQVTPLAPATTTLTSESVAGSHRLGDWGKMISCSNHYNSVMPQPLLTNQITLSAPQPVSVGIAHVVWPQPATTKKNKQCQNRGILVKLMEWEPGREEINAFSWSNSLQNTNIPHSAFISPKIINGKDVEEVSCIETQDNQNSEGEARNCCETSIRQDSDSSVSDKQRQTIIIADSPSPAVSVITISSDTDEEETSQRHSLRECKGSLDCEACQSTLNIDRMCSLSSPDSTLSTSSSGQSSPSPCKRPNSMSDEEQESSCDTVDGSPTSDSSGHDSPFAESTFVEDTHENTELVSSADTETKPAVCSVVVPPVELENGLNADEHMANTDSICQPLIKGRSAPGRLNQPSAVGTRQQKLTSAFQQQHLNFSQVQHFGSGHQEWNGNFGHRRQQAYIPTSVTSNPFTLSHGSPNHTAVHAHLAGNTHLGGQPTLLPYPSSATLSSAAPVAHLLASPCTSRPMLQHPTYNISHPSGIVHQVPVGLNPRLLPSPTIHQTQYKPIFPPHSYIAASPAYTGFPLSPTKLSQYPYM"}, "[3]": {"target": "T1, IKK-beta (Homo sapiens, UniProt O14920)", "T1 construct": "gene IKBKB"}, "[4]": {"target": "T2, ZAK (Homo sapiens, UniProt Q9NYL2)", "T2 construct": "gene MAP3K20"}, "[5]": {"target": "CDK2 (Homo sapiens, UniProt P24941)"}, "[6]": {"target": "NEK7 (Homo sapiens, UniProt Q8TDX7)", "sequence (Q8TDX7 whole entry)": "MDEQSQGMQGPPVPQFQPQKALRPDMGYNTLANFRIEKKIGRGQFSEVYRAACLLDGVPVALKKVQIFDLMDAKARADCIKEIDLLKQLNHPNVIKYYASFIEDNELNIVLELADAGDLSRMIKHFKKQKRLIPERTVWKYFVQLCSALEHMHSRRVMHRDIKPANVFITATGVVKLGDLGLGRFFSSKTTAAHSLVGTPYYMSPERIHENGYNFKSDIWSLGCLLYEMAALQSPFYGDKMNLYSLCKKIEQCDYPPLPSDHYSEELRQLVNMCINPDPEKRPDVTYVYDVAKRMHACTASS"}, "[7]": {"target": "ROS1 (Homo sapiens, UniProt P08922)"}, "[8]": {"target": "SLK (Homo sapiens, UniProt Q9H2G2)"}, "[9]": {"target": "DYRK1A (Homo sapiens, UniProt Q13627)"}, "[10]": {"target": "EPHA8 (Homo sapiens, UniProt P29322)"}, "[11]": {"target": "BMPR1B (Homo sapiens, UniProt O00238)", "sequence (O00238 whole entry)": "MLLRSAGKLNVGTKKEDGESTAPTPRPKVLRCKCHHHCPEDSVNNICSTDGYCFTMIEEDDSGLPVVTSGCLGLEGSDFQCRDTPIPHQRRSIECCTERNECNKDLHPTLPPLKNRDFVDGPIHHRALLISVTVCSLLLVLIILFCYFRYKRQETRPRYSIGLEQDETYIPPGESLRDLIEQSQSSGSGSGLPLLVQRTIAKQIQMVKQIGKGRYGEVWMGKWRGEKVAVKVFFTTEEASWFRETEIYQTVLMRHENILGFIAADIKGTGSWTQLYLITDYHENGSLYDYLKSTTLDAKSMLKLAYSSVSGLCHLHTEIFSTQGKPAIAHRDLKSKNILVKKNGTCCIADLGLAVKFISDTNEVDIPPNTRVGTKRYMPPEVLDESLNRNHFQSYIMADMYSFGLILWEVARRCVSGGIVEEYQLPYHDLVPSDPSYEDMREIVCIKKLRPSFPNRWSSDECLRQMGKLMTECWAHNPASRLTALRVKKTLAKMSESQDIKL"}, "[12]": {"target": "TSSK3 (Homo sapiens, UniProt Q96PN8)", "sequence (Q96PN8 whole entry)": "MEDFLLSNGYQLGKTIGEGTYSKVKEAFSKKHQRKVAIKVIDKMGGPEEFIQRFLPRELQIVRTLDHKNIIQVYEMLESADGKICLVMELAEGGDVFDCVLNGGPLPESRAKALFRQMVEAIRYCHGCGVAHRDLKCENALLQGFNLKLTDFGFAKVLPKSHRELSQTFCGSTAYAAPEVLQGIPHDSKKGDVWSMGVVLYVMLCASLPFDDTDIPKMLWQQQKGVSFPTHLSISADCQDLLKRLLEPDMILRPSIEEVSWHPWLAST"}, "[13]": {"target": "RIPK1 (Homo sapiens, UniProt Q13546)"}, "[14]": {"target": "EPHB4 (Homo sapiens, UniProt P54760)", "sequence (P54760 whole entry)": "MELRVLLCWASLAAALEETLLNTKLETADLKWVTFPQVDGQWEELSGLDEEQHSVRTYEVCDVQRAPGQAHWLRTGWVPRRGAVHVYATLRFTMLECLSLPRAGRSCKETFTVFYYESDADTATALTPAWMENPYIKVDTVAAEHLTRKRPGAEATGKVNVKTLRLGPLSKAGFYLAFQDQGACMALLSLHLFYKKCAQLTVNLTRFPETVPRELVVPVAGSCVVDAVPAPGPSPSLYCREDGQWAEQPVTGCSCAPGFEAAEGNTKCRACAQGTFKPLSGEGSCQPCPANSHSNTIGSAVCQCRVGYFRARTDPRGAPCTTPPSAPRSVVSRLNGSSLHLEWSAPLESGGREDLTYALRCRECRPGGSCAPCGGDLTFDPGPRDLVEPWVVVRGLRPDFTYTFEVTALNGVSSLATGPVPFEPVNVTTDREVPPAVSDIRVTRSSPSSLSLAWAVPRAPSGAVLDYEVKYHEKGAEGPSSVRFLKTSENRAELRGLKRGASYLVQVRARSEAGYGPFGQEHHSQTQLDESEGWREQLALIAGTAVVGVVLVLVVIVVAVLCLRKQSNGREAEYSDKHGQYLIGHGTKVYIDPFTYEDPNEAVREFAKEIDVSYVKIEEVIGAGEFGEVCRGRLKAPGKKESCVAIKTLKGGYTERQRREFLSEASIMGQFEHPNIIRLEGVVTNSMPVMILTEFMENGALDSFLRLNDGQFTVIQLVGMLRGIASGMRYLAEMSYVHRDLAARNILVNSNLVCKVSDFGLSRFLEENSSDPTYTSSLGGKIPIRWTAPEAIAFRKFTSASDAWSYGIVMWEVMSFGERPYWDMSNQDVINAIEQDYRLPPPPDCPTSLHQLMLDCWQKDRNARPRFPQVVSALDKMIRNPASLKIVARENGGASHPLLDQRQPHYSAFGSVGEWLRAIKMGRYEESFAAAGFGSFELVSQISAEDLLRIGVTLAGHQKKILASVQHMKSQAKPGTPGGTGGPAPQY"}, "[15]": {"target": "EGFR(T790M) (Homo sapiens, UniProt P00533, T790M)"}, "[16]": {"target": "T3, MEK3 (Homo sapiens, UniProt P46734)", "T3 construct": "gene MAP2K3"}, "[17]": {"target": "PRKG1 (Homo sapiens, UniProt Q13976)"}, "[18]": {"target": "BRSK2 (Homo sapiens, UniProt Q8IWQ3)", "sequence (Q8IWQ3 whole entry)": "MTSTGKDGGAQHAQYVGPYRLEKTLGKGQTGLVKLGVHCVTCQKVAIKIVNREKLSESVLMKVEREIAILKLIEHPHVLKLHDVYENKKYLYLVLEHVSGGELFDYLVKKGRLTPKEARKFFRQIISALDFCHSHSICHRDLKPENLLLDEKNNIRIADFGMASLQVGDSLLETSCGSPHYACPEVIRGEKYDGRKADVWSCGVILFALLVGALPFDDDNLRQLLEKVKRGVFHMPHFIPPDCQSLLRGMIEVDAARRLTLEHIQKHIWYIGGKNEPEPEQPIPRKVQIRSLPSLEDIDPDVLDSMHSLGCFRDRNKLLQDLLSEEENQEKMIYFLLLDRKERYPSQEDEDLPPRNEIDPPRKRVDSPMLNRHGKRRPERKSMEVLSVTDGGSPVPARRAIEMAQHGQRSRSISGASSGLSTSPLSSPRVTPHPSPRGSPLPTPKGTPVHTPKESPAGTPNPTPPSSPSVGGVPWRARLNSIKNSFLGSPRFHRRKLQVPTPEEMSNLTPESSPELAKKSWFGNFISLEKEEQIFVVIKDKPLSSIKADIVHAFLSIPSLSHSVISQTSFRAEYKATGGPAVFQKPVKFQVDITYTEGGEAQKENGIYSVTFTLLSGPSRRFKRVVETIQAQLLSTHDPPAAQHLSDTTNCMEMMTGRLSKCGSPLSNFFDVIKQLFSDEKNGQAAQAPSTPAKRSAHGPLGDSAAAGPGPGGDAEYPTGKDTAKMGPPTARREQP"}, "[19]": {"target": "INSRR (Homo sapiens, UniProt P14616)"}, "[20]": {"target": "T4, DMPK2 (Homo sapiens, UniProt Q6DT37)", "T4 construct": "gene CDC42BPG"}, "[21]": {"target": "CAMKK2 (Homo sapiens, UniProt Q96RR4)"}, "[22]": {"target": "TNK2 (Homo sapiens, UniProt Q07912)", "sequence (Q07912 whole entry)": "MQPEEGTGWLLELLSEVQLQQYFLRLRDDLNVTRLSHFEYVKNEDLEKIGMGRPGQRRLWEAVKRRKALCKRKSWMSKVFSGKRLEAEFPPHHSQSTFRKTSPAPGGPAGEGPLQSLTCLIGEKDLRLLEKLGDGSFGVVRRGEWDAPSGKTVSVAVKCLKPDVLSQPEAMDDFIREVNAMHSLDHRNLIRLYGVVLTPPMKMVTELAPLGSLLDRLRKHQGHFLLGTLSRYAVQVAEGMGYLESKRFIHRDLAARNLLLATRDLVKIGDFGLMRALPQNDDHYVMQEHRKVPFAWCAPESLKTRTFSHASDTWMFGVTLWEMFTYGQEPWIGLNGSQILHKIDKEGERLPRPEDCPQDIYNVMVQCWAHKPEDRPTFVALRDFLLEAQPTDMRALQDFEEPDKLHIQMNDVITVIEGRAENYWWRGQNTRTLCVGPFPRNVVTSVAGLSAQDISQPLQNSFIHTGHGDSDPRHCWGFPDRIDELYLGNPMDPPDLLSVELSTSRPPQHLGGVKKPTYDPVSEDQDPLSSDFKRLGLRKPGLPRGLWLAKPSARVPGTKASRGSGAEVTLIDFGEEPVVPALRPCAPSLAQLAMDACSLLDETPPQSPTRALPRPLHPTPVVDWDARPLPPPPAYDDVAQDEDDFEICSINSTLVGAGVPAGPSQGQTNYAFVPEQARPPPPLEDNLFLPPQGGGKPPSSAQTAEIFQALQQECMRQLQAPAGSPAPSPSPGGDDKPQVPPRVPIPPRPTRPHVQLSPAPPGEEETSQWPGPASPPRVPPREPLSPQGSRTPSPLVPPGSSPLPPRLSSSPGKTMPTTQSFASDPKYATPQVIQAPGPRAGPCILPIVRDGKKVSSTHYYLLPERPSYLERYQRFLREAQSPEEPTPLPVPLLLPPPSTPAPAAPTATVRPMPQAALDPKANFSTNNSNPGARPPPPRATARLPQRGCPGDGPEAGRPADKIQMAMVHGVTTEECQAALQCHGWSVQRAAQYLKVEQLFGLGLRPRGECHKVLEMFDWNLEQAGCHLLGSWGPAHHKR"}}}
{"smiles": "COc1cc2c(cn1)N(C)C(=O)[C@@H](NC(=O)c1nc3n(n1)[C@H](c1ccccc1)CC3)CC2", "note": "[GNE684, (S)-N-((S)-7-methoxy-1-methyl-2-oxo-2,3,4,5-tetrahydro-1H-pyrido[3,4-b]azepin-3-yl)-5-phenyl-6,7-dihydro-5H-pyrrolo[1,2-b][1,2,4]triazole-2-carboxamide]", "values": [{"measurement": "remaining binding at 10 µM", "setting": "[1]", "result": 85, "unit": "%"}, {"measurement": "remaining binding at 10 µM", "setting": "[2]", "result": 100, "unit": "%"}, {"measurement": "remaining binding at 10 µM", "setting": "[3]", "result": 100, "unit": "%"}, {"measurement": "remaining binding at 10 µM", "setting": "[4]", "result": 99, "unit": "%"}, {"measurement": "remaining binding at 10 µM", "setting": "[5]", "result": 100, "unit": "%"}, {"measurement": "remaining binding at 10 µM", "setting": "[6]", "result": 97, "unit": "%"}, {"measurement": "remaining binding at 10 µM", "setting": "[7]", "result": 96, "unit": "%"}, {"measurement": "remaining binding at 10 µM", "setting": "[8]", "result": 100, "unit": "%"}, {"measurement": "remaining binding at 10 µM", "setting": "[9]", "result": 79, "unit": "%"}, {"measurement": "remaining binding at 10 µM", "setting": "[10]", "result": 100, "unit": "%"}, {"measurement": "remaining binding at 10 µM", "setting": "[11]", "result": 100, "unit": "%"}, {"measurement": "remaining binding at 10 µM", "setting": "[12]", "result": 96, "unit": "%"}, {"measurement": "remaining binding at 10 µM", "setting": "[13]", "result": 0, "unit": "%"}, {"measurement": "remaining binding at 10 µM", "setting": "[14]", "result": 100, "unit": "%"}, {"measurement": "remaining binding at 10 µM", "setting": "[15]", "result": 100, "unit": "%"}, {"measurement": "remaining binding at 10 µM", "setting": "[16]", "result": 87, "unit": "%"}, {"measurement": "remaining binding at 10 µM", "setting": "[17]", "result": 81, "unit": "%"}, {"measurement": "remaining binding at 10 µM", "setting": "[18]", "result": 89, "unit": "%"}, {"measurement": "remaining binding at 10 µM", "setting": "[19]", "result": 92, "unit": "%"}, {"measurement": "remaining binding at 10 µM", "setting": "[20]", "result": 100, "unit": "%"}, {"measurement": "remaining binding at 10 µM", "setting": "[21]", "result": 100, "unit": "%"}, {"measurement": "remaining binding at 10 µM", "setting": "[22]", "result": 100, "unit": "%"}]}
